Results taken from paper PMC12142043, “Cell-based high-content approach for SARS-CoV-2 neutralization identifies unique monoclonal antibodies and PI3K pathway inhibitors” (Frontiers in Cell and Developmental Biology, 2025).
Where a name gives a salt, the structure may show the parent alone. Read-outs that look alike come from different tables or passages of the source.

System: SARS-CoV-2 (USA-WA1/2020) in Calu-3 cells
Format: cell-based
[1] = high dose (10 µM), Calu-3, 48 h
[2] = low dose (100 nM), Calu-3, 48 h

SMILES | dsRNA signal, AU High [1] | dsRNA signal, AU Low [2] | dsRNA signal, AU High | dsRNA signal, AU Low
Cn1nccc1Nc1nccc(-c2ccn([C@H](CO)c3ccc(Cl)c(F)c3)c(=O)c2)n1 [GDC-0994] | 4912.8 AU | 7646.0 AU | – | –
O=C(Nc1nc2cccc(-c3ccc(CN4CCS(=O)(=O)CC4)cc3)n2n1)C1CC1 [GLPG0634] | 36.1 AU | 2690.2 AU | – | –
CNc1nc(Nc2cnn([C@H]3CCN(C4COC4)C[C@@H]3F)c2Cl)ncc1C(F)(F)F [GNE-9605] | 40803.1 AU | 41939.9 AU | – | –
NC(=O)c1cccc(-c2cc(Nc3ccc(OC(F)(F)F)cc3)ncn2)c1 [GNF 2] | 2578.1 AU | 60765.8 AU | – | –
O=C(NCCO)c1cccc(-c2cc(Nc3ccc(OC(F)(F)F)cc3)ncn2)c1 [GNF 5] | 498.5 AU | 65630.6 AU | – | –
Cc1ccc(NC(=O)Nc2cc(C(F)(F)F)ccc2F)cc1Nc1ccc2c(c1)NC(=O)/C2=C\c1ccc[nH]1 [GNF-5837] | 2750.0 AU | 23319.5 AU | – | –
c1cn2cc(-c3ccc4cn[nH]c4c3)nc(Nc3ccc(N4CCOCC4)cc3)c2n1 [GS-9973] | 32878.5 AU | 51541.3 AU | – | –
CC1=C(C(=O)Nc2cc3cn[nH]c3cc2F)C(c2ccc(C(F)(F)F)cc2)CC(=O)N1 (stereo not shown) [GSK429286A] | 10329.9 AU | 34075.4 AU | – | –
CCn1c(-c2nonc2N)nc2c(C#CC(C)(C)O)ncc(OC[C@H]3CCCNC3)c21 [GSK690693] | 6007.3 AU | 39582.1 AU | – | –
O=C1NC(=O)/C(=C/c2ccc3nccc(-c4ccncc4)c3c2)S1 [GSK1059615] | 832.8 AU | 16639.6 AU | – | –
Cn1cc(-c2ccc3c(c2)CCN3C(=O)Cc2cccc(C(F)(F)F)c2)c2c(N)ncnc21 [GSK2606414] | 6871.8 AU | 28375.6 AU | – | –
Cc1cccc(CC(=O)N2CCc3c2ccc(-c2cn(C)c4ncnc(N)c24)c3F)n1 [GSK2656157] | 2371.9 AU | 33522.6 AU | – | –
COc1ccc(COc2ccc(Cc3cnc(N)nc3N)cc2OC)cc1 [GW2580] | 17974.9 AU | 13531.9 AU | – | –
O=C1Nc2ccc(I)cc2/C1=C/c1cc(Br)c(O)c(Br)c1 [GW5074] | 14683.4 AU | 20240.6 AU | – | –
Cn1cc(/C=C2\C(=O)Nc3cccnc32)c2ccccc21 [GW441756] | 33214.4 AU | 18067.5 AU | – | –
O=C(NC1CCOCC1)c1ccc(-c2cc(-c3c[nH]nc3-c3ccccn3)ccn2)cc1 [GW788388] | 8820.5 AU | 0.0 AU | – | –
Cc1ccc(C(=O)Nc2ccc(CN3CCN(C)CC3)c(C(F)(F)F)c2)cc1C#Cc1cnc2[nH]ncc2c1 [GZD824] | 64275.0 AU | 33439.8 AU | – | –
O=c1c(O)c(-c2ccccc2)oc2cc(O)cc(O)c12 [Galangin;3,5,7-Trihydroxyflavone] | 16189.5 AU | 46015.9 AU | – | –
COc1cc2ncnc(Nc3ccc(F)c(Cl)c3)c2cc1OCCCN1CCOCC1.Cl [Gefitinib hydrochloride] | – | – | 0.0 | 28000.5
CC(C)=CCC[C@](C)(O[C@@H]1O[C@H](CO[C@@H]2O[C@H](CO)[C@@H](O)[C@H](O)[C@H]2O)[C@@H](O)[C@H](O)[C@H]1O)[C@H]1CC[C@]2(C)[C@@H]1[C@H](O)C[C@@H]1[C@@]3(C)CC[C@H](O[C@@H]4O[C@H](CO)[C@@H](O)[C@H](O)[C@H]4O[C@@H]4O[C@H](CO)[C@@H](O)[C@H](O)[C@H]4O)C(C)(C)[C@@H]3CC[C@]12C [Ginsenoside Rb1] | 7414.4 AU | 52585.8 AU | – | –
CC(C)=CCC[C@](C)(O[C@@H]1O[C@H](CO)[C@@H](O)[C@H](O)[C@H]1O)[C@H]1CC[C@]2(C)[C@@H]1[C@H](O)C[C@@H]1[C@@]3(C)CC[C@H](O)C(C)(C)[C@@H]3[C@@H](O[C@@H]3O[C@H](CO)[C@@H](O)[C@H](O)[C@H]3O[C@@H]3O[C@@H](C)[C@H](O)[C@@H](O)[C@H]3O)C[C@]12C [Ginsenoside Re] | 10054.1 AU | 65920.2 AU | – | –
CC(C)=CCC[C@](C)(O)[C@H]1CC[C@]2(C)[C@@H]1[C@H](O)C[C@@H]1[C@@]3(C)CC[C@H](O[C@@H]4O[C@H](CO)[C@@H](O)[C@H](O)[C@H]4O)C(C)(C)[C@@H]3CC[C@]12C [Ginsenoside Rh2] | 41827.1 AU | 30569.1 AU | – | –
COc1ccc2c(c1)c(C1=C(c3c[nH]c4ccccc34)C(=O)NC1=O)cn2CCCN(C)C [Go 6983] | 52923.0 AU | 26190.1 AU | – | –
CN1CCN(C2CCN(C(=O)Nc3cc(Oc4ccc(NC(=O)C5(C(=O)Nc6ccc(F)cc6)CC5)c(F)c4)ccn3)CC2)CC1 [Golvatinib (E7050)] | 36777.1 AU | 23267.5 AU | – | –
Cl.Cl.O=S(=O)(NCCNC/C=C/c1ccc(Br)cc1)c1cccc2cnccc12 [H 89 2HCl] | 7807.6 AU | 56279.7 AU | – | –
Cl.O=S(=O)(c1cccc2cnccc12)N1CCNCC1 [HA-100 (hydrochloride)] | 27295.9 AU | 14084.7 AU | – | –
CCOC(=O)c1cnc2ccc(-c3cncc(NS(=O)(=O)c4ccccc4)c3)cn12 [HS-173] | 345.7 AU | 31987.4 AU | – | –

SMILES | dsRNA signal, AU High [1] | dsRNA signal, AU Low [2] | dsRNA signal, AU High | dsRNA signal, AU Low
Cc1nc(Nc2cnn(C3CCNCC3)c2)nc2c1N(C)C(=O)c1cc3ccccc3cc1N2C [HTH-01-015] | 4731.3 AU | 21129.9 AU | – | –
COc1ccc2c(c1)[nH]c1c(C)nccc12 [Harmine hydrochloride] | 0.0 AU | 53937.1 AU | – | –
COc1ccc2c(c1)[nH]c1c(C)nccc12 [Harmine] | 9958.7 AU | 24294.0 AU | – | –
Cl.O=c1[nH]ccc2c(S(=O)(=O)N3CCCNCC3)cccc12 [Hydroxyfasudil hydrochloride] | 2331.1 AU | 751.7 AU | – | –
COc1cc(OC)c(C=C2C(O)=Nc3ccccc32)c(OC)c1 [IC261] | 6564.9 AU | 46952.8 AU | – | –
O=C(Nc1cc(C(F)(F)F)cc(C(F)(F)F)c1)c1cc(Cl)ccc1O [IMD 0354] | 3341.9 AU | 20862.1 AU | – | –
CNC(=O)c1ccc(-c2cnc3ncc(Cc4ccc5ncccc5c4)n3n2)cc1F [INCB28060] | 59276.3 AU | 63091.3 AU | – | –
COc1cc(N2CCOCC2)ccc1NC(=O)c1csc(-c2cccnc2)n1 [IRAK inhibitor 6] | 19776.5 AU | 7334.0 AU | – | –
O=C(Nc1nc2ccccc2n1CCN1CCOCC1)c1cccc([N+](=O)[O-])c1 [IRAK-1-4 Inhibitor I] | 21347.7 AU | 22363.0 AU | – | –
C#Cc1cccc(Nc2ncnc3cc4c(cc23)OCCOCCOCCO4)c1 [Icotinib] | 11365.1 AU | 24561.1 AU | – | –
Nc1nc(Nc2ccc(S(N)(=O)=O)cc2)nn1C(=O)c1c(F)cccc1F [JNJ-7706621] | 0.0 AU | 4378.3 AU | – | –
Cn1cc(-c2ccc3nnc(C(F)(F)c4ccc5ncccc5c4)n3n2)cn1 [JNJ-38877605] | 9345.0 AU | 32468.4 AU | – | –
CN(C)C/C=C/C(=O)Nc1cccc(C(=O)Nc2ccc(Nc3nccc(-c4cccnc4)n3)cc2)c1 [JNK-IN-7] | 66910.1 AU | 45982.8 AU | – | –
COc1cc(-c2cc(-c3cccc(O)c3)cnc2N)cc(OC)c1OC [K02288] | 4456.5 AU | 7061.1 AU | – | –
COc1ccc(S(=O)(=O)Nc2ccccc2CN(C)C/C=C/c2ccc(Cl)cc2)cc1.Cl [KN-92 hydrochloride] | 0.0 AU | 14359.5 AU | – | –
COc1ccc(S(=O)(=O)Nc2ccccc2CN(C)C/C=C/c2ccc(Cl)cc2)cc1.O=P(O)(O)O [KN-92 phosphate] | 4429.3 AU | 16946.8 AU | – | –
COc1ccc(S(=O)(=O)N(CCO)c2ccccc2CN(C)C/C=C/c2ccc(Cl)cc2)cc1.O=P(O)(O)O [KN-93 Phosphate] | 4943.4 AU | 2840.4 AU | – | –
Nc1ccc(/C=C/C(=O)NCc2cc3cc(-c4ccc(C(=O)N5CCC(F)(F)CC5)cc4)cc(-c4ccc(F)cc4)c3o2)cn1 [KPT-9274] | 6803.0 AU | 25813.6 AU | – | –
CCCNC(=O)Nc1ccc(Oc2ncnc3cc(OC)c(OC)cc23)cc1Cl [KRN 633] | 55097.1 AU | 35164.2 AU | – | –
O=c1cc(-c2cccc3c2Sc2ccccc2S3)oc(N2CCOCC2)c1 [KU 55933] | 33867.0 AU | 52307.6 AU | – | –
C[C@@H]1CN(CC(=O)Nc2ccc3c(c2)Cc2cccc(-c4cc(=O)cc(N5CCOCC5)o4)c2S3)C[C@H](C)O1 [KU-60019] | 31471.9 AU | 10671.9 AU | – | –
COc1cc2nccc(Oc3ccc(NC(=O)Nc4ccc(F)cc4F)c(F)c3)c2cc1OC [Ki8751] | 16810.1 AU | 45822.4 AU | – | –
COc1cc(Oc2ccnc3cc(OC)c(OC)cc23)ccc1NC(=O)NC(C)c1nccs1 (stereo not shown) [Ki20227] | 0.0 AU | 13064.0 AU | – | –
CC(C)C[C@H](N)C(=O)O [L-Leucine] | 3716.4 AU | 18120.1 AU | – | –
COc1ccccc1-c1cc(Nc2cccc(CS(N)(=O)=O)c2)ncn1 [LDC000067] | 31035.0 AU | 20712.1 AU | – | –
Cl.c1ccc2c(-c3cnn4cc(-c5ccc(N6CCNCC6)cc5)cnc34)ccnc2c1 [LDN193189 Hydrochloride] | 42525.8 AU | 24650.0 AU | – | –
